# Reference: patent EP4810061A1, “DEUTERATED CAMPTOTHECIN COMPOUND, AND PREPARATION AND USE THEREOF” (Shanghai Qilu Pharmaceutical Research and Development …, priority 2023, dated 2025)
# What was measured:
# [1] = In vitro plasma stability of payload compounds; format: in vitro ADME, CD1 mouse; settings: 5 µM, 37°C
# Procedure: (§1) 398 µL of plasma was taken and preheated to 37°C, then co-incubated for 15 minutes. 2 µL of the sample solution was added to the plasma to prepare a final sample concentration of 5 µM. The above solution was co-incubated at 37°C, and 50 µL aliquots were taken at 0, 15, 30, 60, and 120 minutes, followed by the addition of 450 µL of ice-cold acetonitrile (containing the internal standard). The solution was vortexed for 10 minutes, centrifuged, and the remaining content of the parent substrate was detected by the LC-MS/MS method. For specific results, refer to Table 4-1. Table 4-1. Plasma stability of the payload compounds of the present disclosure
# [2] = In vitro plasma stability of payload compounds; format: in vitro ADME, Human; settings: 5 µM, 37°C
# Procedure: as §1
# [3] = Repeated dose toxicity experiment of payload compounds in rats; format: in vivo, SD rats; settings: for Body weight and food consumption: 0.3 mg/kg and 1.0 mg/kg, 7 consecutive days; for animals showed immediate ataxia after administration / rats died during recovery (of the animals with ataxia): tail vein injection for 7 consecutive days; for animals showed immediate ataxia after administration: main experimental group + TK group
# Procedure: Test sample preparation: The test sample was weighed according to the predetermined weight into a glass vial. First, 1 mL of DMSO was added and mixed until the test sample was dissolved, followed by the addition of 1 mL of Solutol HS-15. After mixing thoroughly, 8 mL of sodium chloride injection was added and vortex-mixed to obtain a clear and transparent solution.
# SD rats (purchased from Beijing Vital River) were used as test animals. […] During the acclimation period, one cage-side observation was conducted daily; during the dosing period, all animals were subjected to clinical observations twice daily (morning and afternoon). Reactions in various aspects, including the skin, fur, eyes (sclera), ears, nose, oral cavity, chest, abdomen, urogenital area, limbs, as well as respiration, movement, urination, defecation (including urine and feces color), and behavioral changes, were recorded. Daily weight data of the main test group animals were documented. For animals scheduled for dissection, terminal body weight (fasted) was measured prior to dissection. The food intake of the test animals was also recorded. Table 6-1. Results of repeated dose toxicity experiments of the payload compounds of the present disclosure in rats
# At the end of the administration, gross dissection was performed on D8 after the administration.
SMILES,Residual content of parent payload at 120 minutes (relative to 0 minutes) CD1 mouse plasma [1],Residual content of parent payload at 120 minutes (relative to 0 minutes) Human plasma [2],Body weight and food consumption [3],animals showed immediate ataxia after administration ([3]; 0.3 mpk dose group),animals showed immediate ataxia after administration ([3]; 1 mpk dose group),"average food consumption ([3]; ♀ rats, at the same dose, versus control (Dxd) group)",rats died during recovery (of the animals with ataxia) ([3]; 0.3 mpk dose group),rats died during recovery (of the animals with ataxia) ([3]; 1 mpk dose group)
[2H]C1([2H])OC(=O)[C@](O)(CC)c2cc3n(c(=O)c21)Cc1c-3nc2cc(F)c(C)c3c2c1[C@@H](NC(=O)CO)CC3 [Compound 2],102.54%,111.04%,"At the same dose, the effects of compound 2 and Dxd on rat body weight and food consumption were essentially comparable;","compound 2: 0.3 mpk dose group: 13% (2/16) of animals showed immediate ataxia after administration, followed by gradual recovery;","compound 2: 1 mpk dose group: 25% (4/16) of animals showed immediate ataxia after administration, followed by gradual recovery;","for ♀ rats, at the same dose, the average food consumption of the compound 2 group was higher than that of the control group;",–,–
[2H]C1([2H])OC(=O)[C@](O)(CC)c2cc3n(c(=O)c21)Cc1c-3nc2cc(F)c(C)c3c2c1[C@@H](NC(=O)[C@H](O)C1CC1)CC3 [Compound 3],104.97%,105.54%,–,–,–,–,–,–
[2H]C1([2H])OC(=O)[C@](O)(CC)c2cc3n(c(=O)c21)Cc1c-3nc2cc(F)c(C)c3c2c1[C@@H](NC(=O)C[C@@H](C)O)CC3 [Compound 5],96.02%,107.73%,–,–,–,–,–,–
[2H]C1([2H])OC(=O)[C@](O)(CC)c2cc3n(c(=O)c21)Cc1c-3nc2cc(F)c(C)c3c2c1[C@@H](NC(=O)C[C@H](C)O)CC3 [Compound 6],105.93%,94.89%,–,–,–,–,–,–
CC[C@@]1(O)C(=O)OCc2c1cc1n(c2=O)Cc2c-1nc1cc(F)c(C)c3c1c2[C@@H](NC(=O)CO)CC3 [Dxd],95.42%,87.57%,Slow/decreased body weight gain; decreased food consumption;,31%,31%,–,40%,40%
